Data reported in the supplement of paper PMC11451515.

Tested on: NOMO1
Assay: cell viability relative to DMSO control; higher = less cytotoxic
Conditions: 48 h
Method in brief: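 Cells were incubated for 48 h at 37°C before CellTiter-Glo One luminescence was read. The cells were NOMO1 or SEM (500 cells/well) or P12-Ichikawa (1000 cells/well) leukemia cells, adapted for at least four passages in each medium and seeded in 1536-well plates (5 μl). Dosing used library compounds in DMSO applied by pin over 11 threefold points, 47 μM to 0.79 nM. Viability is the per-plate percentage of DMSO wells, with cell-free wells as background.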

[1] = RPMI 5 mM glucose + 10% FBS, 0.000781 µM
[2] = RPMI 5 mM glucose + 10% FBS, 0.00234 µM
[3] = RPMI 5 mM glucose + 10% FBS, 0.00702 µM
[4] = RPMI 5 mM glucose + 10% FBS, 0.0211 µM
[5] = RPMI 5 mM glucose + 10% FBS, 0.0632 µM
[6] = RPMI 5 mM glucose + 10% FBS, 0.19 µM
[7] = RPMI 5 mM glucose + 10% FBS, 0.569 µM
[8] = RPMI 5 mM glucose + 10% FBS, 1.71 µM
[9] = RPMI 5 mM glucose + 10% FBS, 5.12 µM
[10] = RPMI 5 mM glucose + 10% FBS, 15.4 µM
[11] = RPMI 5 mM glucose + 10% FBS, 46.1 µM
[12] = RPMI 5 mM glucose + 10% dialyzed FBS, 0.000781 µM
[13] = RPMI 5 mM glucose + 10% dialyzed FBS, 0.00234 µM
[14] = RPMI 5 mM glucose + 10% dialyzed FBS, 0.00702 µM
[15] = RPMI 5 mM glucose + 10% dialyzed FBS, 0.0211 µM
[16] = RPMI 5 mM glucose + 10% dialyzed FBS, 0.0632 µM
[17] = RPMI 5 mM glucose + 10% dialyzed FBS, 0.19 µM
[18] = RPMI 5 mM glucose + 10% dialyzed FBS, 0.569 µM
[19] = RPMI 5 mM glucose + 10% dialyzed FBS, 1.71 µM
[20] = RPMI 5 mM glucose + 10% dialyzed FBS, 5.12 µM
[21] = RPMI 5 mM glucose + 10% dialyzed FBS, 15.4 µM
[22] = RPMI 5 mM glucose + 10% dialyzed FBS, 46.1 µM
[23] = HPLM + 10% dialyzed FBS, 0.000781 µM
[24] = HPLM + 10% dialyzed FBS, 0.00234 µM
[25] = HPLM + 10% dialyzed FBS, 0.00702 µM
[26] = HPLM + 10% dialyzed FBS, 0.0211 µM
[27] = HPLM + 10% dialyzed FBS, 0.0632 µM
[28] = HPLM + 10% dialyzed FBS, 0.19 µM
[29] = HPLM + 10% dialyzed FBS, 0.569 µM
[30] = HPLM + 10% dialyzed FBS, 1.71 µM
[31] = HPLM + 10% dialyzed FBS, 5.12 µM
[32] = HPLM + 10% dialyzed FBS, 15.4 µM
[33] = HPLM + 10% dialyzed FBS, 46.1 µM

Row | SMILES | cell viability [1] [%] | cell viability [2] [%] | cell viability [3] [%] | cell viability [4] [%] | cell viability [5] [%] | cell viability [6] [%] | cell viability [7] [%] | cell viability [8] [%] | cell viability [9] [%] | cell viability [10] [%] | cell viability [11] [%] | cell viability [12] [%] | cell viability [13] [%] | cell viability [14] [%] | cell viability [15] [%] | cell viability [16] [%] | cell viability [17] [%] | cell viability [18] [%] | cell viability [19] [%] | cell viability [20] [%] | cell viability [21] [%] | cell viability [22] [%] | cell viability [23] [%] | cell viability [24] [%] | cell viability [25] [%] | cell viability [26] [%] | cell viability [27] [%] | cell viability [28] [%] | cell viability [29] [%] | cell viability [30] [%] | cell viability [31] [%] | cell viability [32] [%] | cell viability [33] [%]
1 | COc1cc(O)c2c(c1)C(=O)c1cc(C)cc(O)c1C2=O | 107 | 119 | 111 | 115 | 102 | 113 | 101 | 110 | 105 | 92.3 | 31.2 | 115 | 114 | 110 | 110 | 120 | 118 | 109 | 119 | 120 | 85.4 | 24.3 |  |  |  |  |  |  |  |  |  |  | 
2 | COC1=CC=C(C=C1O)C/2=C/C(=O)C3=C(O2)C=C(O[C@@H]4O[C@H](CO[C@@H]5O[C@@H](C)[C@H](O)[C@@H](O)[C@H]5O)[C@@H](O)[C@H](O)[C@H]4O)C=C3O | 112 | 103 | 110 | 115 | 130 | 114 | 126 | 125 | 126 | 124 | 114 |  |  |  |  |  |  |  |  |  |  |  | 112 | 118 | 129 | 126 | 130 | 142 | 134 | 117 | 117 | 129 | 139
3 | CCOC1=CC=CC=C1N\2C(=O)C3=C(C=CC=C3)\N=C2C(C)N4CCN(CC4)C(=O)COC5=CC=C(Cl)C=C5 (stereo not given) | 116 | 115 | 132 | 112 | 131 | 127 | 119 | 37.8 | 10.4 | 5.57 | 3.82 |  |  |  |  |  |  |  |  |  |  |  |  |  |  |  |  |  |  |  |  |  | 
4 | C#CCN[C@@H]1CCc2ccccc21.CS(=O)(=O)O | 89.6 | 97 | 92.7 | 87.9 | 94 | 88.1 | 91.1 | 84.2 | 84.2 | 96.5 | 67.2 | 86.1 | 99.9 | 105 | 99.8 | 106 | 101 | 93.7 | 107 | 85.1 | 90.6 | 81.8 | 107 | 93.4 | 108 | 109 | 91.7 | 90.3 | 96 | 82.6 | 93.9 | 71.3 | 43.2
5 | OCCn1cc(-c2cnc3nnn(Cc4ccc5ncccc5c4)c3n2)cn1 | 99.4 | 110 | 112 | 99.9 | 93.2 | 116 | 110 | 107 | 102 | 105 | 96.5 | 93.3 | 105 | 103 | 112 | 105 | 91.7 | 97.1 | 103 | 86.8 | 80.6 | 82.2 | 106 | 104 | 123 | 110 | 102 | 118 | 92.2 | 103 | 92.1 | 89.7 | 63.2
6 | NC(=O)NO | 83.9 | 90.8 | 85.6 | 88.7 | 86.1 | 90.2 | 90.8 | 94.6 | 37.3 | 10.4 | 1.27 | 81.9 | 90.4 | 92.6 | 95.3 | 98 | 87.2 | 91.1 | 96 | 33 | 10 | 1.29 | 88.2 | 102 | 110 | 110 | 116 | 100 | 88.9 | 84.9 | 16.6 | 3.7 | 2.4
7 | C=CCc1ccc(O)c(-c2ccc(O)c(CC=C)c2)c1 | 107 | 105 | 119 | 118 | 122 | 112 | 95.3 | 61 | 51 | 60.4 | 62.6 | 114 | 106 | 107 | 112 | 119 | 111 | 91.4 | 54.7 | 47.9 | 58.9 | 53.8 | 111 | 117 | 112 | 120 | 112 | 94.8 | 90.6 | 93.4 | 84.3 | 86.8 | 88.7
8 | OCCC#Cc1nc(-c2ccc(F)cc2)c(-c2ccncc2)n1CCCc1ccccc1 | 119 | 122 | 122 | 135 | 127 | 138 | 150 | 136 | 128 | 132 | 116 |  |  |  |  |  |  |  |  |  |  |  |  |  |  |  |  |  |  |  |  |  | 
9 | Nc1nc(Cl)nc2c1ncn2[C@@H]1O[C@H](CO)[C@@H](O)[C@@H]1F | 77.2 | 131 | 49 | 27.2 | 20 | 21.7 | 16.9 | 16.7 | 18.4 | 16 | 13.5 | 38.9 | 63.2 | 29.8 | 25.7 | 23 | 23.6 | 19.9 | 16.4 | 14.2 | 19.7 | 17.1 | 41.7 | 70.8 | 43.4 | 33.3 | 26.6 | 18.2 | 24.7 | 23.9 | 21.2 | 18.1 | 18.6
10 | CC[C@]1(O)C[C@@H]2CN(CCc3c([nH]c4ccccc34)[C@@](C(=O)OC)(c3cc4c(cc3OC)N(C)[C@H]3[C@@](O)(C(N)=O)[C@H](O)[C@]5(CC)C=CCN6CC[C@]43[C@@H]65)C2)C1 | 110 | 113 | 132 | 103 | 96.4 | 25.3 | 21.1 | 25.8 | 21.4 | 22.8 | 21 | 116 | 114 | 106 | 122 | 121 | 44.6 | 24.6 | 28.2 | 24.2 | 23.6 | 20.7 |  |  |  |  |  |  |  |  |  |  | 
11 | N#C/N=C(\NCCCCCCOc1ccc(Cl)cc1)Nc1ccncc1 | 61 | 41.9 | 22 | 19.2 | 15.7 | 9.97 | 11.4 | 8.82 | 9.25 | 8.91 | 6.02 | 81.6 | 58.1 | 26.1 | 21 | 12.5 | 12.2 | 9.8 | 8.26 | 7.27 | 6.87 | 5.38 | 49.3 | 47.6 | 19.9 | 15.5 | 12.6 | 11.9 | 9.75 | 9.76 | 9.75 | 8.47 | 6.05
12 | CN1CCN(CCOc2cc(OC3CCOCC3)c3c(Nc4c(Cl)ccc5c4OCO5)ncnc3c2)CC1 |  |  |  |  |  |  |  |  |  |  |  |  |  |  |  |  |  |  |  |  |  |  | 134 | 119 | 125 | 131 | 125 | 123 | 134 | 123 | 89.4 | 60.1 | 71.4
13 | CNC(=O)Nc1ccc(-c2nc(N3CC4CCC(C3)O4)c3cnn(C4CCC5(CC4)OCCO5)c3n2)cc1 | 108 | 115 | 118 | 99.3 | 91.4 | 81.1 | 74.7 | 73 | 72.2 | 65.1 | 69.8 | 105 | 101 | 84.3 | 79.3 | 77.6 | 68.5 | 71.5 | 62 | 62 | 55.1 | 52.4 | 101 | 88.6 | 97.2 | 86.1 | 73 | 75.9 | 70.4 | 63.8 | 63.3 | 57.2 | 51.6
